Source: article PMC3467217, “A Potent Class of GPR40 Full Agonists Engages the EnteroInsular Axis to Promote Glucose Control in Rodents” (PLoS ONE, 2012)

Key:
[1] = test system: humans; conditions: cited from earlier work
[2] = test system: Zucker fatty rats; conditions: 21-day, qd dosing; cited from earlier work
[3] = target: mouse GPR40 (Mus musculus, UniProt Q76JU9); experiment: Mouse GPR40 inositol phosphate accumulation assay; type: cell-based
Experimental: (§1) GPR40 aequorin, plasmid titration, and inositol phosphate assays were performed as described. For aequorin assays, in addition to transient transfection of GPR40 into CHO cells, a CHO cell line stably expressing both GPR40 and aequorin was generated. GLUTag cells were obtained under a license from Dr. Daniel Drucker, University of Toronto. Competition binding experiments were performed using membranes prepared from A9_GPR40 cells. […] Competition binding assays were carried out in 20 mM Hepes pH 7.5, 5 mM MgCl2, 100 mM NaCl and 0.1% (w/v) free fatty acid BSA and bound radioligand was collected on 96-well GF/C filter plates.

[4] = test system: HF/STZ mice; experiment: Single oral dose without glucose challenge in HF/STZ mice: GLP-1, insulin, glucose, GIP; type: in vivo, mouse
Experimental: The increase in insulin secretion by GPR40 agonists is due to direct stimulation of GPR40 receptors on pancreatic β-cells, but may also be derived from stimulation of the gut peptides GLP-1 and GIP, which subsequently act on the GLP-1 and GIP G protein-coupled receptors found on pancreatic β-cells. […] No glucose challenge was performed in order to isolate the effects of the compounds alone.
(§2) All procedures on animals were approved by the Amgen San Francisco Institutional Animal Care and Use Committee (approved protocols #11–04 and #2007–00106). The Amgen San Francisco vivarium is an AAALAC accredited facility. Animals were housed under a 12-h light, 12-h dark cycle (lights-on 0600 h and lights-off 1800 h) and were allowed ad libidum access to chow and water. The HF/STZ mice were established as previously described. Briefly, C57BL/6j mice (Jackson labs) at 4 weeks of age were fed a high-fat diet (BioServ S1850, 35% fat) for 3-weeks and then injected with 95 mg/kg streptozotocin (Sigma) ip to induce beta cell dysfunction. The animals continued on the same high fat diet for 3–6 additional weeks. Animals were then randomized into treatment groups based on fasting blood glucose and insulin measures. NONcNZO10/LtJ (RCS10) male mice (Jackson labs) were used at 12-weeks of age and randomized for treatment based on fasting glucose levels. For OGTT experiments, drugs were formulated in 1% HPMC, 10% HPbCD, 1% Tween-80 and dosed via oral gavage. Glucose was administered at 2 g/kg 1-hour post drug dose by oral gavage.

[5] = test system: mouse islets; experiment: Mouse islet perifusion assay; type: cell-based; conditions: 10 µM compound
Experimental: (§3) Mouse islets were isolated and tested for stimulation of GSIS as described. Human islets were purchased from Prodo labs or were obtained from the National Institutes of Health and Juvenile Diabetes Research Foundation supported Islet Cell Resource Consortium (http://icr.coh.org). Islet inositol phosphate assays were performed on islets cells that had been dispersed with trypsin. 10,000 islet cells were plated/well of a 96-well plate and were loaded with ^3H-myo-inositol (0.5 µCi/well) in RPMI overnight prior to treatment. The next day, response to different stimuli was tested in HBSS containing 10 mM LiCl and 0.1% HSA (w/v) for 1 hour at 37°C. Accumulated ^3H-inositol phosphate was measured after capture to SPA beads. Islet perifusion experiments were performed on mouse islets loaded into a Brandel Suprafusion system. Twenty islets were size-matched and loaded per perifusion chamber. Islets were perifused in KRBH containing, sequentially, 3 mM glucose, then 3 mM glucose containing 10 µM drug, 16.7 mM glucose containing 10 µM drug and finally returned to 3 mM glucose containing 10 µM drug. Insulin was measured using an insulin ELISA kit (Alpco). Fetal rat intestinal cells were isolated from e19-day old fetuses of pregnant Sprague-Dawley rats. Briefly, fetal intestines were isolated and digested in HBSS buffer containing 0.5 mg/ml collagenase (Sigma), 0.5 mg/ml of hyaluronidase (Sigma) and 0.05 mg/ml of deoxyribonuclease I (Roche) for 30 minutes at 37°C. The digestion was quenched using HBSS containing 15% FBS. Fetal rat intestinal cells were washed and cultured overnight in DMEM containing 5% FBS in 96-well plates. To test for secretion of GLP-1 and GIP in response to treatments, we incubated cells for 1 hour with treatments in KRBH buffer containing 0.05% BSA (w/v). GLP-1 and GIP1 secreted into the media was measured using ELISA kits specific for GLP-1 (Linco) or GIP (Millipore).

[6] = test system: HF/STZ mice; experiment: OGTT in high-fat fed, streptozotocin-treated (HF/STZ) type 2 diabetic mice; type: in vivo, mouse
Experimental: as §2
(§4) For all glucose tolerance tests, glucose and insulin measurements were taken from tail vein samples at various time-points. Blood glucose values were measured on an Accu-Chek glucometer (Roche Diagnostics), while insulin levels were determined using an ELISA (Alpco).

[7] = Unbound plasma drug concentration in HF/STZ mice; type: in vivo; conditions: C57BL/6j, mouse, 100 mg/kg oral, 1-hour post drug administration, by MS, read-out: free drug level in plasma
[8] = test system: fetal rat intestinal cells; experiment: GLP-1 secretion assay with fetal rat intestinal cells; type: cell-based; conditions: 1 hour
Description: (§5) Increased GLP-1 and GIP would be expected to have additional benefits in type 2 diabetics. […] We tested for potential effects on incretin secretion in vitro by using cells isolated from fetal rat intestines.
Mouse islets were isolated and tested for stimulation of GSIS as described. Human islets were purchased from Prodo labs or were obtained from the National Institutes of Health and Juvenile Diabetes Research Foundation supported Islet Cell Resource Consortium (http://icr.coh.org). Islet inositol phosphate assays were performed on islets cells that had been dispersed with trypsin. 10,000 islet cells were plated/well of a 96-well plate and were loaded with ^3H-myo-inositol (0.5 µCi/well) in RPMI overnight prior to treatment. The next day, response to different stimuli was tested in HBSS containing 10 mM LiCl and 0.1% HSA (w/v) for 1 hour at 37°C. Accumulated ^3H-inositol phosphate was measured after capture to SPA beads. Islet perifusion experiments were performed on mouse islets loaded into a Brandel Suprafusion system. Twenty islets were size-matched and loaded per perifusion chamber. […] Insulin was measured using an insulin ELISA kit (Alpco). […] GLP-1 and GIP1 secreted into the media was measured using ELISA kits specific for GLP-1 (Linco) or GIP (Millipore).

[9] = test system: wild type and GPR40 knockout mice; experiment: OGTT and GLP-1 secretion in wild type and GPR40 null mice; type: in vivo, mouse; conditions: OGTT, single oral dose
Experimental: as §2, §4

[10] = target: PPAR gamma (Homo sapiens, UniProt P37231); experiment: PPAR-gamma luciferase assay; type: cell-based; conditions: concentrations up to 10 µM
PPAR gamma, sequence (P37231 whole entry): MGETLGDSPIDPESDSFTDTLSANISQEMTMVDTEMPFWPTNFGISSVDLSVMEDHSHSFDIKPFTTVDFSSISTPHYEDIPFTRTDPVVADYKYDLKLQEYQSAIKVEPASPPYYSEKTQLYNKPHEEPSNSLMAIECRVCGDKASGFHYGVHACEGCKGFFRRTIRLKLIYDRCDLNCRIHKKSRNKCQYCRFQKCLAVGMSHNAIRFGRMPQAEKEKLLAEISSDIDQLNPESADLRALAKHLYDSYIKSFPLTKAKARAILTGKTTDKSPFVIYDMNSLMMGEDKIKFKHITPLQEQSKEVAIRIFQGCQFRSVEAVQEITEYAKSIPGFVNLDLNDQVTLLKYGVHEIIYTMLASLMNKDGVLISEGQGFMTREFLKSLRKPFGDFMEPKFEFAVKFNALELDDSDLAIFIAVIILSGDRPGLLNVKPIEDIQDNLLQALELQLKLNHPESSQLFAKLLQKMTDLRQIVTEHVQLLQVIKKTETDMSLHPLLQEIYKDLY
Description: (§6) (A) GPR41 (FFAR3) aequorin assay. GPR41 was force coupled to the calcium signaling pathway by co-transfecting the cells with Gqmyri5. (B) GPR43 (FFAR2) aequorin assay. The short chain fatty acid propionate acts as a natural agonist ligand for GPR41 and GPR43. (C) GPR120 aequorin assay. The unsaturated fatty acids α-LNN and DHA act as natural agonist ligands for GPR120. (D) PPAR-gamma luciferase assay using the thiazolidinedione rosiglitazone as a positive control. […] (TIF) Click here for additional data file.

[11] = target: PPAR alpha (Homo sapiens, UniProt Q07869); experiment: PPAR-alpha luciferase reporter assay; type: cell-based; conditions: concentrations up to 10 µM
PPAR alpha, sequence (Q07869 whole entry, species assumed): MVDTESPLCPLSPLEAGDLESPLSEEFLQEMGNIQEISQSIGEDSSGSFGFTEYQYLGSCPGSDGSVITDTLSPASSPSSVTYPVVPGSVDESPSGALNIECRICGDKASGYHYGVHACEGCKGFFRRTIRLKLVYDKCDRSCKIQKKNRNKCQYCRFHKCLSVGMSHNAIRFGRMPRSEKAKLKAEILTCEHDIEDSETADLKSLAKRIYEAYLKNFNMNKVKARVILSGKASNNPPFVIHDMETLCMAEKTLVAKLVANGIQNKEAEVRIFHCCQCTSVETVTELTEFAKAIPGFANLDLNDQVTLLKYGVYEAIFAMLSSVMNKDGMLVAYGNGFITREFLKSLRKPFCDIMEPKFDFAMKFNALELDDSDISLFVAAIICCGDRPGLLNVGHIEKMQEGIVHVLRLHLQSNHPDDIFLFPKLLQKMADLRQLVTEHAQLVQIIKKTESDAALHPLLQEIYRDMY

[12] = target: T1, GPR40 (Homo sapiens, UniProt O14842); experiment: Aequorin Ca2+ flux assay in CHO cell line stably expressing GPR40; type: cell-based; conditions: CHO-GPR40 stable cell line; for Emax: compared to natural free fatty acid ligands, read-out: Emax (efficacy)
T1 construct: expressed in transfected cells; host or cells: CHO cell line stably expressing GPR40 and aequorin
T1 sequence (O14842 whole entry): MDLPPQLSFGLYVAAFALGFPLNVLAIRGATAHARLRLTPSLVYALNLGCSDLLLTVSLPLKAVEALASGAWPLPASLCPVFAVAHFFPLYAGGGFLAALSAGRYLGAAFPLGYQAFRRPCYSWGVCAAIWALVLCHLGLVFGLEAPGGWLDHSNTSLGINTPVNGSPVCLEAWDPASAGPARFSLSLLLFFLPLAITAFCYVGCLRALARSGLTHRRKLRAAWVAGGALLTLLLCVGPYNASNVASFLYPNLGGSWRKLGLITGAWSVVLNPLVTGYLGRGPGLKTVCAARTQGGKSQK
Experimental: Since GPR40 agonists with greater intrinsic activity may have improved anti-diabetic properties, we focused our efforts to discover potent synthetic full agonists.
as §1

[13] = target: T2, GPR43 (FFAR2) (Homo sapiens, UniProt O15552); experiment: GPR43 aequorin assay; type: cell-based; conditions: up to 10 µM
T2 construct: expressed in transfected cells
T2 sequence (O15552 whole entry, species assumed): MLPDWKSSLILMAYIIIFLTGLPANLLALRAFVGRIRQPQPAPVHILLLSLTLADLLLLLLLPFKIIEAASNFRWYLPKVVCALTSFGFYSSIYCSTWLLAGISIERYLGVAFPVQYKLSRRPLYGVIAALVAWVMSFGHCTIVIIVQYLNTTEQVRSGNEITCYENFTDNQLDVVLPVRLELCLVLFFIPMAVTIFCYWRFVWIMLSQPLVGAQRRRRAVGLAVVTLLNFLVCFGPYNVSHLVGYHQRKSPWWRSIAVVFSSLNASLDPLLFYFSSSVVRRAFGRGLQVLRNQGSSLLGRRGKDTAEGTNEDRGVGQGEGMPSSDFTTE
Description: as §6

[14] = test system: human islet cells; experiment: Inositol phosphate assay with dispersed human islet cells; type: cell-based
Experimental: (§7) Mouse islets were isolated and tested for stimulation of GSIS as described. Human islets were purchased from Prodo labs or were obtained from the National Institutes of Health and Juvenile Diabetes Research Foundation supported Islet Cell Resource Consortium (http://icr.coh.org). Islet inositol phosphate assays were performed on islets cells that had been dispersed with trypsin. 10,000 islet cells were plated/well of a 96-well plate and were loaded with ^3H-myo-inositol (0.5 µCi/well) in RPMI overnight prior to treatment. The next day, response to different stimuli was tested in HBSS containing 10 mM LiCl and 0.1% HSA (w/v) for 1 hour at 37°C. Accumulated ^3H-inositol phosphate was measured after capture to SPA beads. Islet perifusion experiments were performed on mouse islets loaded into a Brandel Suprafusion system. Twenty islets were size-matched and loaded per perifusion chamber. Islets were perifused in KRBH containing, sequentially, 3 mM glucose, then 3 mM glucose containing 10 µM drug, 16.7 mM glucose containing 10 µM drug and finally returned to 3 mM glucose containing 10 µM drug. Insulin was measured using an insulin ELISA kit (Alpco). Fetal rat intestinal cells were isolated from e19-day old fetuses of pregnant Sprague-Dawley rats. […] GLP-1 and GIP1 secreted into the media was measured using ELISA kits specific for GLP-1 (Linco) or GIP (Millipore).

[15] = target: T3, GPR120 (Homo sapiens, UniProt Q5NUL3); experiment: GPR120 aequorin assay; type: cell-based; conditions: weak activity
T3 construct: expressed in transfected cells
T3 sequence (Q5NUL3 whole entry, species assumed): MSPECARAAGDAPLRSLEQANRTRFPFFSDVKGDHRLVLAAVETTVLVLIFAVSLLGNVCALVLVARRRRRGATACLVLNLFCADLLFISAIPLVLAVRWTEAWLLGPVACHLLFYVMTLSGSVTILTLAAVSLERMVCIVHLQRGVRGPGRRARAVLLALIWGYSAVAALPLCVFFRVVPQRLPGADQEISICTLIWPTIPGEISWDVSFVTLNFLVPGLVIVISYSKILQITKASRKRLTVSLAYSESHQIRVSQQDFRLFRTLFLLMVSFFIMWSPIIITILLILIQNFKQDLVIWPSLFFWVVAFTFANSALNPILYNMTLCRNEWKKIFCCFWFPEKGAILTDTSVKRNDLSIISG
Description: as §6

[16] = test system: mouse islets; experiment: GSIS assay in mouse islets; type: cell-based; conditions: 16.7 mM glucose
Experimental: as §3

[17] = test system: islets isolated from GPR40 knockout mice; experiment: GSIS assay with islets from GPR40 knock-out mice; type: cell-based, mouse
Experimental: as §3

[18] = target: T1, GPR40; experiment: Inositol phosphate accumulation assay in A9 cells stably expressing GPR40 (A9_GPR40); type: cell-based; conditions: for agonist character: inositol phosphate accumulation, A9 cells stably expressing GPR40 (figure S1)
Experimental: as §1
(A) Structure of selected GPR40 agonists. (B) GPR40 agonists were tested in parallel in vitro in an inositol phosphate accumulation assay in A9 cells stably expressing GPR40. (TIF) Click here for additional data file.

[19] = target: T4, GPR41 (FFAR3) (Homo sapiens, UniProt O14843); experiment: GPR41 aequorin assay; type: cell-based; conditions: up to 10 µM
T4 construct: expressed in transfected cells
T4 sequence (O14843 whole entry, species assumed): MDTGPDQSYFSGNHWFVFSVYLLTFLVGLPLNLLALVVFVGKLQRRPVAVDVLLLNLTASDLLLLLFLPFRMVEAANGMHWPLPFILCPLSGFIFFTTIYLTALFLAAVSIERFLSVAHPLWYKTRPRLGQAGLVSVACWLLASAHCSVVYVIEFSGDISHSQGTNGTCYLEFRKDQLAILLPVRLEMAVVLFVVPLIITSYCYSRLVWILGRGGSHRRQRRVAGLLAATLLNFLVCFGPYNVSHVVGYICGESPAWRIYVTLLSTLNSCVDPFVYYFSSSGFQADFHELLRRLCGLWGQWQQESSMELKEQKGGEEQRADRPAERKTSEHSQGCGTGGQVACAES
Description: as §6

[20] = test system: GLUTag cells; experiment: Inositol phosphate accumulation assay in GLUTag enteroendocrine L-cell line; type: cell-based, mouse
Experimental: as §5, §1

[21] = target: PPAR delta (Homo sapiens, UniProt Q03181); experiment: PPAR-delta luciferase reporter assay; type: cell-based; conditions: concentrations up to 10 µM
PPAR delta, sequence (Q03181 whole entry): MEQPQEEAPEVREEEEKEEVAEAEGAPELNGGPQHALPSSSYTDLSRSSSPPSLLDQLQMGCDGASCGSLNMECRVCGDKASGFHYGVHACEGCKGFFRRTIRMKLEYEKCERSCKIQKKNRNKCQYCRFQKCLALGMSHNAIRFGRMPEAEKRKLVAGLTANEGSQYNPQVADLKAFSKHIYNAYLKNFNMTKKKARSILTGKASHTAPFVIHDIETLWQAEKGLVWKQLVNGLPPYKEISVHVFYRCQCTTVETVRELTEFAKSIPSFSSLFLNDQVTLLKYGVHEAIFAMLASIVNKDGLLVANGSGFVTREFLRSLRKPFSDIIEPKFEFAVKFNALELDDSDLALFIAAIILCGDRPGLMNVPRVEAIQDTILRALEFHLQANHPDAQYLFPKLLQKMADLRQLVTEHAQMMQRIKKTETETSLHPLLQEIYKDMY

[22] = test system: human islets; experiment: GSIS assay with human islets; type: cell-based; conditions: 12.5 mM glucose
Experimental: as §7

[23] = target: T1, GPR40; experiment: Competition binding with 3H-AM-1638 on A9_GPR40 membranes; conditions: unlabelled competitor
Experimental: as §1

mouse GPR40, sequence (Q76JU9 whole entry): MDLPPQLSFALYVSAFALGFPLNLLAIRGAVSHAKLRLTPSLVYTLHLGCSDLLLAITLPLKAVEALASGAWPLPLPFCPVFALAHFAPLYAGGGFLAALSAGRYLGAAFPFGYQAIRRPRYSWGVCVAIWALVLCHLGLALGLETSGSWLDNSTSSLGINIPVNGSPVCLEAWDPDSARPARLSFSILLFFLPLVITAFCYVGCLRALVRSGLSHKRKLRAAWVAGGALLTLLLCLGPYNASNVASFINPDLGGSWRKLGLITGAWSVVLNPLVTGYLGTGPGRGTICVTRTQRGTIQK

Cc1cc(OCCCS(C)(=O)=O)cc(C)c1-c1cccc(COc2ccc3c(c2)OC[C@H]3CC(=O)O)c1 [TAK-875]
glycemic parameters in type 2 diabetic subjects [1]: improve glycemic parameters
incretin levels in type 2 diabetic patients [1]: not associated with a change in incretin levels

CC#C[C@@H](CC(=O)O)c1ccc(OCc2cccc(-c3ccc(C(F)(F)F)cc3)c2)cc1 [AMG 837, reference compound]
anti-diabetic effects after repeated dosing [2]: sustained anti-diabetic effects
EC50 [3]: 11 ± 0.05 nM
blood glucose levels ([4]; HF/STZ mice, single oral dose, no glucose challenge): stabilized blood glucose levels
GLP-1 or GIP levels in vivo ([4]; oral gavage, doses as high as 100 mg/kg): does not substantially increase
insulin stimulation compared to vehicle control ([5]; 3 mM glucose): neither AMG 837 nor AM-1638 stimulated insulin
insulin secretion ([5]; 16.7 mM glucose): increased both first and second phase insulin secretion
Glucose AUC improvement ([6]; OGTT, 100 mg/kg oral, 1 hour before glucose): 19%
doses at which maximally efficacious ([6]; preliminary experiments): ≥ 60 mg/kg
concentration at 1 h [7]: 826 ± 66 nM
glucose and insulin levels in healthy volunteers ([1]; phase 1 clinical trials, ref Amgen, data on file): did not lower glucose or increase insulin levels
GLP-1 release in vitro [8]: could stimulate GLP-1 release

N[C@@H](CC(=O)N1CCn2c(nnc2C(F)(F)F)C1)Cc1cc(F)c(F)cc1F [sitagliptin, reference compound]
improvement in pre- and post-challenge glucose levels ([9]; GPR40 knockout mice): maintained in both
improvement in pre- and post-challenge glucose levels ([9]; wild type mice): maintained in both

CC[C@H](CC(=O)O)c1cccc(OCc2ccc(-c3cc(OC)ccc3F)c([C@@H]3CCCC3(C)C)c2)c1F [AM-6226]
activation of PPAR gamma [10]: did not activate
activation of PPAR alpha [11]: did not activate
EC50 [12]: 130 ± 30 nM
Emax [12]: 105%
activation of GPR43 (FFAR2) [13]: did not activate
IP production efficacy, fold greater than AMG 837 [14]: 8–10 ×
EC50 [15]: ~5 µM
increase of insulin secretion, fold from that of AMG 837 [16]: 3–4 fold
EC50 ([16]; read-out: EC50 for potentiation of insulin secretion): 940 ± 600 nM
GSIS response of GPR40 knockout islets [17]: did not respond
intrinsic activity, fold greater than AMG 837 ([18]; inositol phosphate assay): ~2 fold
EC50 ([18]; inositol phosphate assay, 1-hour accumulation, read-out: Half-maximal potency): 5.7 ± 0.8 nM
activation of GPR41 (FFAR3) [19]: did not activate
inositol phosphate accumulation, fold increase compared to AMG 837 [20]: 3–4 fold
activation of PPAR delta [21]: did not activate
stimulation of insulin secretion compared with AMG 837 [22]: significantly greater
displacement of 3H-AM-1638 [23]: displaced ^3H-AM-1638

Cc1ccccc1C#Cc1ccc(CCC(=O)O)cc1 [TUG-424, reference compound]
agonist character [18]: partial agonists

CC#CC(CC(=O)O)c1ccc(OCc2ccc(-c3cccc(OC)c3)cc2)cc1 (racemic) [(±)-AM-8596]
EC50 [12]: 1500 ± 170 nM
Emax [12]: 98%

Exendin-4: exerts its effects via GLP-1R [reference compound]
GSIS response of GPR40 knockout islets [17]: did respond

O=C(O)CCc1ccc(NCc2cccc(Oc3ccccc3)c2)cc1 [GW-9508, reference compound]
agonist character [18]: partial agonists

C/C=C/[C@H](CC(=O)O)c1ccc(OCc2ccc(-c3cc(OC)ccc3F)cc2)cc1 [AM-8182]
EC50 [12]: 2400 ± 100 nM
Emax [12]: 106%
